Assay results published in US20070292492A1, “PHARMACEUTICAL FORMULATIONS FOR IONTOPHORETIC TETRACYCLINE ANTIBIOTIC DELIVERY” (priority 2006, published 2007).
Structures can show the parent of a compound that is named as a salt. Where two headings read alike, the source gives them in different places.

Columns and labels:
[1] = assay type: in vitro ADME, hairless rat
Method: • Freshly excised full thickness hairless rat skin (approximately 1 mm thick) was mounted in between the donor and receptor compartments of the horizontal diffusion cells with the stratum corneum facing the donor compartment. • The receptor compartment contained phosphate buffer (4 ml) at pH 7.4, and the donor compartment contained one of the following tetracycline hydrochloride solutions (4 ml): water (pH 2.1, 37 mg/ml), citrate buffer (pH 3.0, 9 mg/ml), phosphate buffer (pH 8.0, 0.7 mg/ml), or Teorell buffer (pH 8.3, 5.9 mg/ml, pH 11.9: 20 mg/ml). • The apparatus was maintained at 32° C., with constant stirring in both the donor and receptor compartments using magnetic stir bars to maintain sink conditions. • Silver/Silver chloride electrodes were used for iontophoresis. The area of skin exposed to the donor was 0.64 cm^2. • Current densities of 0.2 and 0.3 mA/cm^2 were applied for 1 h; and current density of 0.4 mA/cm^2 was applied for 30 min, 1 h and 2 h. Samples were collected for a period of 10 h. Both anodal and cathodal iontophoresis were performed. • At predetermined intervals, 0.5 ml of sample was collected from the receptor chamber and replenished with 0.5 ml of phosphate buffer (pH7.4). Analysis of Tetracycline Hydrochloride: • Samples from the receptor chamber were analyzed for the amount of tetracycline hydrochloride using a Shimadzu HPLC with a reverse phase column (Phenomenex, Luna C18 column with 5μ pore size). • The composition of the mobile phase used was 0.01N oxalic acid and acetonitrile (75:25) at a flow rate of 0.8 ml/min using a detection wavelength of 360 nm. Results: • The cumulative amount of drug permeating through the skin passively at the end of 10 h was 1.7±0.45 μg/cm^2 (FIG. 1). • Iontophoresis improved the delivery of the drug across the skin. i) The cumulative amount permeated through the skin at the end of 10 h by anodal iontophoresis for 1 h was 11.18±2.02 μg/cm^2. ii) The cumulative amount of the drug delivered at the end of 10 h by cathodal iontophoresis for 1 h was 19.65±6.9 μg/cm^2 (FIGS. 1 and 2). The current density used was 0.4 mA/cm^2 in both the cases. • The cumulative amount of drug permeated through the skin increased with an increase in the current density. The cumulative amount of the drug permeated through the skin over 10 hours increased from 5.85±0.72 μg/cm^2 to 19.65±6.9 μg/cm^2 with an increase in the current density from 0.2 mA/cm^2 to 0.4 mA/cm^2 (FIG. 3). • The amount of drug permeated through the skin increased with an increase in the duration of current application. […] For a donor concentration of 10 mg/ml, 22.11 μg/cm^2 of tetracycline hydrochloride permeated through the skin as compared to 8.25 μg/cm^2 delivered from a donor concentration of 2.5 mg/ml (FIG. 5). For all the above studies except anodal iontophoresis, tetracycline hydrochloride solution in borate buffer at pH 9.4 was employed. For anodal iontophoresis, tetracycline hydrochloride in citrate buffer at pH 3.0 has been used.

[2] = In vivo intracutaneous microdialysis with cathodal iontophoresis; set-up: species or system hairless rat; settings: 10 mg/mL, pH ~9.3; cathodal iontophoresis 200-400 μA/cm^2 for 0.5-4 hours; 4 hours of application time
Method: In vivo microdialysis studies were undertaken to determine the effect of current and time on the transdermal delivery of tetracycline using iontophoresis. The study placed a tetracycline formulation (10 mg/mL, pH ˜9.3) in a cartridge designed for iontophoresis. […] Cathodal iontophoresis current was varied from 200-400 μA/cm^2 for a period of 0.5-4 hours. The microdialysis dialysate samples collected were analyzed using HPLC. Potential skin irritation was monitored using chromameter, laser Doppler velocimetry (LDV) and transepidermal water loss (TEWL).

CN(C)[C@@H]1C(O)=C(C(N)=O)C(=O)[C@@]2(O)C(O)=C3C(=O)c4c(O)cccc4[C@@](C)(O)[C@H]3C[C@@H]12 [tetracycline hydrochloride]
amount of tetracycline hydrochloride permeated through the skin ([1]; hairless, rat, 2.5 mg/ml, pH 9.4): 8.25 μg/cm^2 | amount of tetracycline hydrochloride permeated through the skin ([1]; hairless, rat, 10 mg/ml, pH 9.4): 22.11 μg/cm^2 | cumulative amount permeated through the skin at the end of 10 h by anodal iontophoresis ([1]; hairless, rat, 10 h, 9 mg/ml, pH 3): 11.18±2.02 μg/cm^2 | cumulative amount of drug permeating through the skin passively at the end of 10 h ([1]; hairless, rat, 10 h, pH 9.4): 1.7±0.45 μg/cm^2 | cumulative amount of the drug delivered at the end of 10 h by cathodal iontophoresis ([1]; hairless, rat, 10 h, pH 9.4): 19.65±6.9 μg/cm^2 | cumulative amount of the drug permeated through the skin over 10 hours ([1]; hairless, rat, 10 h, pH 9.4): 5.85±0.72 μg/cm^2 | cumulative amount of drug permeated through the skin, cathodal iontophoresis compared to anodal iontophoresis or passive delivery ([1]; pH 9.4): significantly increased

CN(C)[C@@H]1C(O)=C(C(N)=O)C(=O)[C@@]2(O)C(O)=C3C(=O)c4c(O)cccc4[C@@](C)(O)[C@H]3C[C@@H]12 [tetracycline]
tetracycline concentration in the skin by microdialysis as a function of duration of current application [2]: highest amount of tetracycline concentration
